Source: patent US7786141B2 (Vertex Pharmaceuticals Incorporated, priority 2004, dated 2010)

Tests used:
M1 muscarinic receptor = biological target: T1, M1 muscarinic receptor (Homo sapiens, UniProt P11229); test: Functional mobilization of intracellular calcium (FLIPR) in M1-CHO cells; format: cell-based; conditions: M1 receptor, calcium mobilization; for Emax: read-out: M1 Efficacy
T1 construct: expressed in transfected cells; host or cells: CHO (M1-CHO)
T1 sequence (P11229 1-460): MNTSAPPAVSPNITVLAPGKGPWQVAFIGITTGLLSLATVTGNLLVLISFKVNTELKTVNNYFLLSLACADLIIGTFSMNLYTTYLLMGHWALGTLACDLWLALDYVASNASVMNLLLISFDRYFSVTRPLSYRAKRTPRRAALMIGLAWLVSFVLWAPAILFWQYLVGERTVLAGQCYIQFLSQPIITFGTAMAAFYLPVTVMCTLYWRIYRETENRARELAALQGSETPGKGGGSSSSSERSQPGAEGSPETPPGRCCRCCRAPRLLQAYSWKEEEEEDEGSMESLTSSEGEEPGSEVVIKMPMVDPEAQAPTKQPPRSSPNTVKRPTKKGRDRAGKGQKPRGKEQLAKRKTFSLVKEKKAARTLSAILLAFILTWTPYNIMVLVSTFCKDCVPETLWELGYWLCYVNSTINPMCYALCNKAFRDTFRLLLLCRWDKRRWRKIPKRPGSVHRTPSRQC
Outline: (§1)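 Intracellular calcium rise is measured by FLIPR fluorescence over 60 sec in CHO cells carrying human M1 or M4 receptors. Compounds are tested alone as agonists, or pre-incubated 15 min (or co-applied) ahead of carbachol at its EC80 to detect inhibition.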

M4 muscarinic receptor = biological target: T2, M4 muscarinic receptor (Homo sapiens, UniProt P08173); test: Functional mobilization of intracellular calcium (FLIPR) in M4-CHO cells; format: cell-based; conditions: M4 receptor, calcium mobilization; for Emax: read-out: M4 Efficacy
T2 construct: expressed in transfected cells; host or cells: CHO (M4-CHO)
T2 sequence (P08173 1-479): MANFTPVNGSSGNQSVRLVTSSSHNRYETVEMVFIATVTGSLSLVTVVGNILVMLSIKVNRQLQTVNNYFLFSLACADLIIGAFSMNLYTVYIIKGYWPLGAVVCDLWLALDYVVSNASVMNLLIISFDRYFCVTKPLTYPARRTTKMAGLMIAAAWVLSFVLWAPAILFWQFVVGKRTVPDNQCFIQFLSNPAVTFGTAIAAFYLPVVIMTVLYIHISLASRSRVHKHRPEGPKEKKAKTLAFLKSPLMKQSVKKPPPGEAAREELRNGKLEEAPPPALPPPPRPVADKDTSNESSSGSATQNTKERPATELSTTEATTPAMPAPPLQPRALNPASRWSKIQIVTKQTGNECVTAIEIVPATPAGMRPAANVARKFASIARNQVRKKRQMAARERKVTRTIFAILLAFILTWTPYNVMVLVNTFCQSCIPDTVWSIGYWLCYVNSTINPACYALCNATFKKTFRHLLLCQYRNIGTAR
Outline: as §1

| SMILES | M1 Activity (M1 muscarinic receptor) | Emax (M1 muscarinic receptor) | M4 Activity (M4 muscarinic receptor) | Emax (M4 muscarinic receptor) | M1 Efficacy (M1 muscarinic receptor) | M4 Efficacy (M4 muscarinic receptor) |
| --- | --- | --- | --- | --- | --- | --- |
| CS(=O)(=O)N[C@H]1CC2(CCN(C[C@H]3C[C@H]4C=C[C@H]3C4)CC2)c2ccccc21 [compound 70] | xx (activity was measured to be between 0.1 μM and 1.0 μM) | 65 to 85% | x (activity was measured to be greater than 1.0 μM) | 65 to 85% | – | – |
| COCCOC(=O)N1C2CCC1CC(N1CCC3(CC1)C(=O)Nc1ccccc13)C2 (centres unmarked) [compound 71] | xxx (activity was measured to be less than 0.1 μM) | < 65% | xx (activity was measured to be between 0.1 μM and 1.0 μM) | < 65% | – | – |
| Cc1ccc2c(c1)C1(CCN(C3C4CCCC3CCC4)CC1)CN2 (centres unmarked) [compound 72] | xxx (activity was measured to be less than 0.1 μM) | 65 to 85% | xx (activity was measured to be between 0.1 μM and 1.0 μM) | 65 to 85% | – | – |
| CCOC(=O)N1C2CCC1CC(N1CCC3(CC1)CN(C(=O)c1cc(C)oc1C)c1ccc(F)cc13)C2 (centres unmarked) [compound 73] | xxx (activity was measured to be less than 0.1 μM) | 65 to 85% | xx (activity was measured to be between 0.1 μM and 1.0 μM) | 65 to 85% | – | – |
| CCCc1ccc2c(c1)C1(CCN(C3CCN(C(=O)OCC)CC3)CC1)CN2C(C)=O [compound 74] | xxx (activity was measured to be less than 0.1 μM) | 65 to 85% | xx (activity was measured to be between 0.1 μM and 1.0 μM) | 65 to 85% | – | – |
| CC(=O)N1CC2(CCN(CC3CCCOC3)CC2)c2cc(F)ccc21 (centres unmarked) [compound 75] | xxx (activity was measured to be less than 0.1 μM) | < 65% | xx (activity was measured to be between 0.1 μM and 1.0 μM) | 65 to 85% | – | – |
| COCCOC(=O)N1C2CCC1CC(N1CCC3(CC1)CN(C(C)=O)c1ccc(F)cc13)C2 (centres unmarked) [compound 76] | xxx (activity was measured to be less than 0.1 μM) | 65 to 85% | xx (activity was measured to be between 0.1 μM and 1.0 μM) | 65 to 85% | – | – |
| CCOC(=O)N1CCC(N2CCC3(CC2)CN(C(=O)c2ccc(F)cc2)c2ccc(F)cc23)CC1 [compound 77] | xxx (activity was measured to be less than 0.1 μM) | 65 to 85% | xx (activity was measured to be between 0.1 μM and 1.0 μM) | < 65% | – | – |
| CCOC(=O)N1CCC(N2CCC3(CC2)CN(C(C)=O)c2ccc(-c4ccccc4C)cc23)CC1 [compound 78] | xxx (activity was measured to be less than 0.1 μM) | 65 to 85% | xx (activity was measured to be between 0.1 μM and 1.0 μM) | < 65% | – | – |
| CCCOC(=O)N1CCC(N2CCC3(CC2)CN(C(C)=O)c2ccc(F)cc23)CC1 [compound 79] | xx (activity was measured to be between 0.1 μM and 1.0 μM) | < 65% | x (activity was measured to be greater than 1.0 μM) | < 65% | – | – |
| COCCOC(=O)N1CC2(CCN(C3CC4CCC(C3)N4C(=O)O[C@H]3CCOC3)CC2)c2cc(F)ccc21 (some centres unmarked) [compound 80] | xx (activity was measured to be between 0.1 μM and 1.0 μM) | < 65% | xx (activity was measured to be between 0.1 μM and 1.0 μM) | < 65% | – | – |
| C#CCOC(=O)N1CCC(N2CCC3(CC2)CN(C(C)=O)c2ccc(C)cc23)CC1 [compound 81] | xx (activity was measured to be between 0.1 μM and 1.0 μM) | < 65% | x (activity was measured to be greater than 1.0 μM) | < 65% | – | – |
| CC(=O)N1CC2(CCN(CC3CCN(C(=O)O[C@@H]4CCOC4)CC3)CC2)c2cc(F)ccc21 [compound 82] | xxx (activity was measured to be less than 0.1 μM) | – | xx (activity was measured to be between 0.1 μM and 1.0 μM) | – | xx (efficacy was calculated to be between 85% and 65%) | xx (efficacy was calculated to be between 85% and 65%) |
| CCOC(=O)N1CCC(N2CCC3(CC2)CN(C(C)=O)c2ccc(-c4cccc(F)c4)cc23)CC1 [compound 84] | xxx (activity was measured to be less than 0.1 μM) | 65 to 85% | xx (activity was measured to be between 0.1 μM and 1.0 μM) | 65 to 85% | – | – |
| Clc1ccc2c(c1)C1(CCN(C3CC4CCC(C4)C3)CC1)CN2 (centres unmarked) [compound 85] | xxx (activity was measured to be less than 0.1 μM) | 65 to 85% | xx (activity was measured to be between 0.1 μM and 1.0 μM) | 65 to 85% | – | – |
| CCON=C1CCC(N2CCC3(CC2)CN(C(C)=O)c2ccc(F)cc23)CC1 (centres unmarked) [compound 86] | xxx (activity was measured to be less than 0.1 μM) | 65 to 85% | x (activity was measured to be greater than 1.0 μM) | < 65% | – | – |
| O=C(C1CC1)N1CC2(CCN(C3CC4CCC(C3)N4C(=O)O[C@@H]3CCOC3)CC2)c2cc(F)ccc21 (some centres unmarked) [compound 87] | xxx (activity was measured to be less than 0.1 μM) | 65 to 85% | x (activity was measured to be greater than 1.0 μM) | < 65% | – | – |
| CCOC(=O)N1C2CCC1CC(N1CCC3(CC1)CN(C(=O)c1ccno1)c1ccc(F)cc13)C2 (centres unmarked) [compound 88] | xxx (activity was measured to be less than 0.1 μM) | 65 to 85% | xx (activity was measured to be between 0.1 μM and 1.0 μM) | < 65% | – | – |
| CCOC(=O)N1C2CCC1CC(N1CCC3(CC1)CN(C(=O)OCCOC)c1ccc(F)cc13)C2 (centres unmarked) [compound 90] | xx (activity was measured to be between 0.1 μM and 1.0 μM) | 65 to 85% | x (activity was measured to be greater than 1.0 μM) | < 65% | – | – |
| CCCOC(=O)N1CCC(N2CCC3(CC2)CN(C(=O)N(C)C)c2ccc(F)cc23)CC1 [compound 91] | xxx (activity was measured to be less than 0.1 μM) | 65 to 85% | xx (activity was measured to be between 0.1 μM and 1.0 μM) | < 65% | – | – |
| CCOC(=O)N1CCC(N2CCC3(CC2)CN(C(C)=O)c2ccc(C)cc23)CC1 [compound 92] | xxx (activity was measured to be less than 0.1 μM) | 65 to 85% | xx (activity was measured to be between 0.1 μM and 1.0 μM) | < 65% | – | – |
| O=C(O[C@@H]1CCOC1)N1CC2(CCN(C3CC4CCC(C3)N4C(=O)O[C@H]3CCOC3)CC2)c2cc(F)ccc21 (some centres unmarked) [compound 93] | xx (activity was measured to be between 0.1 μM and 1.0 μM) | – | xx (activity was measured to be between 0.1 μM and 1.0 μM) | – | x (efficacy was calculated to be less than 65%) | x (efficacy was calculated to be less than 65%) |
| CC(=O)N1CC2(CCN(C3CC4CCC(C3)N4C(=O)OC(C)C)CC2)c2cc(F)ccc21 (centres unmarked) [compound 94] | xxx (activity was measured to be less than 0.1 μM) | < 65% | xx (activity was measured to be between 0.1 μM and 1.0 μM) | < 65% | – | – |
